Source: patent US11713318B2, “Short conjugated oligoelectrolytes and uses thereof” (The Regents Of The University Of California, priority 2018, dated 2023)
In brackets after ≈: the same amount, converted by molar mass. Read-outs that look alike come from different tables or passages of the source.

Assays:
Cytotoxicity, MTT assay = format: cell-based
Procedure: (§1) Before removing the frozen cell stocks from liquid nitrogen, culture medium was pre-warmed to 37° C. The frozen tube was then removed from liquid nitrogen and placed into a 37° C. water bath and shaken gently to thaw the cell stock as quickly as possible. A small portion of the pre-warmed culture medium was added to the cell solution. The cell suspension was then centrifuged at 1000 r/min for 3 minutes. The supernatant was discarded and the cells were resuspended in fresh culture medium.
(§2) NIH 3T3 (ATCC CRL-1658) and Hep G2 (ATCC HB-8065) cells were cultured with DMEM+10% FBS in 100 mm dishes. Cells were lifted for subculture or testing when confluence reached ˜60% by treating with 1× trypsin (incubated for 3 min at 37° C.). J774 (ATCC TIB-67) cells were cultured with DMEM+10% FBS in 100 mm dishes. Cells were lifted for subculture or testing when confluence reached ˜80% using a cell scraper. RAW264.7 (ATCC TIB-71) cells were cultured with DMEM+10% heat-inactivated FBS+1% pen/strep in T75 flasks. Cells were lifted for subculture or testing when confluence reached ˜80% using a cell scraper.
(§3) • 1. Cells were lifted and resuspended in culture medium. The number of cells in the cell suspension was determined using an auto-cell counter: 10 μL of the cell suspension was mixed with 10 μL 1× trypan blue (filtered with 0.2 μm PES filter) and the mixture was loaded onto a cell counting slide. Based on the concentration of viable cells, the cell suspension was further diluted to achieve the desired density. • 2. Cells were seeded in 96 well plates by adding 100 μL final cell suspension column-by-column using a multichannel pipette (5000 cells/well for NIH 3T3, 10000 cells/well for Hep G2, J774 and RAW264.7). The outer wells were block with PBS to reduce the effects of evaporation. One column was filled with only culture medium as a blank. Cells were incubated overnight before adding the test articles. • 3. Test articles were dissolved in 1×PBS (or DMSO) to obtain stocks solution. Stock solutions were pre-warmed before use. […] Serial dilutions (2-fold) of the 10× solutions were made in sterile culture tubes by diluting in 1×PBS (8 dilutions to yield 9 test concentrations). 900 μL of culture media was added to each tube to obtain final drug solution containing 10% PBS (or less than 1% DMSO) for each experimental group. • 4. The original culture medium was gently removed from the 96-well plates using a pipette. 100 μL of the test article solutions prepared in Step 3 were added to rows 2-7 of each column to obtain six replicates for each concentration. Plates were then incubated for 24 hours. • 5. MTT solutions were prepared by dissolving commercial MTT powder in 1×PBS to a concentration of 5 mg/mL. After passing through a 0.22 μm PES filter, the MTT solution was divided into 1 mL portions in sterile centrifuge tubes and stored at −20° C. • 6. MTT stock solutions were removed from the freezer to thaw at room temperature. Before adding MTT solutions, cell cultures were visually inspected and imaged using a microscope (to use as a comparison with MTT results). 10 μL of the 5 mg/mL MTT solution was added to each well and the plate was incubated for 4 hours. • 7. After 4 h incubation, the culture medium/MT solution was removed gently using a pipette. 100 μL of DMSO was added to each well using a multichannel pipette. The 96-well plates were analyzed in a plate reader using the following method: shake for 5 minutes, wait for 30 seconds, and measure absorbance at 570 nm. • 8. Data processing: The average of background Abg was calculated from the blank column. All other data was first treated by subtracting Abg. The average A. and standard deviation Se of each experimental group and the average Ac and standard deviation Sc for control group (with pure culture medium incubation) were then calculated. The cell viability was determined as Ae/Ac×100% and corresponding error as Se/Ae×100%. Significant outliers in any experimental or control group were removed. […]

[1] = test system: Hep G2 (ATCC HB-8065) cells; experiment: Cytotoxicity, MTT assay; format: cell-based; conditions: Hep G2, MTT, 24 hours incubation
Procedure: as §1, §2, §3

J774 (ATCC TIB-67) cells = experiment: Cytotoxicity, MTT assay; format: cell-based; conditions: Mus musculus, MTT, 24 hours incubation, read-out: IC50
Procedure: as §1, §2, §3

[2] = test system: NIH 3T3 (ATCC CRL-1658) cells; experiment: Cytotoxicity, MTT assay; format: cell-based; conditions: Mus musculus, NIH3T3; NIH 3T3; MTT, 24 hours incubation; read-out: IC50
Procedure: as §1, §2, §3

[3] = test system: K. aerogenes (ATCC 13048); experiment: MIC broth microdilution method, Table 3; conditions: Klebsiella aerogenes, ATCC13048
[4] = test system: S. epidermidis (ATCC 14990); experiment: MIC broth microdilution method, Table 3; conditions: Staphylococcus epidermidis, ATCC14990
E. coli K12 (ATCC 47076) = experiment: MIC broth microdilution method, Table 3; conditions: Escherichia coli, ATCC47076
[5] = test system: A. baumannii 1674627 (MDR); experiment: MIC against resistant strains, Tables 5a-5d; format: cell-based; conditions: Acinetobacter baumannii, n = 3
Procedure: (§4) Compounds described herein were evaluated for growth inhibition against a variety of bacterial species, including strains that have developed resistance to common antibacterial treatments, according to the procedure described herein, or by analogous procedures known to those skilled in the art. Resistant bacterial strains used for compound testing include methicillin-resistant S. aureus (MRSA), vancomycin resistant Enterococci (VRE) and various multi-drug resistant (MDR) strains commonly associated with hospital-acquired (nosocomial) infections, including, but not limited to A. baumannii, K. pnuemoniae, and E. cloacae.

[6] = test system: A. baumannii CDC0290 (MDR); experiment: MIC against resistant strains, Tables 5a-5d; format: cell-based; conditions: Acinetobacter baumannii, n = 3
Procedure: as §4

[7] = test system: E. cloacae 1744299 (ESBL); experiment: MIC against resistant strains, Tables 5a-5d; format: cell-based; conditions: Enterobacter cloacae, n = 3
Procedure: as §4

E. coli ATCC25922 (WT) = experiment: MIC against resistant strains, Tables 5a-5d; format: cell-based; conditions: Escherichia coli, n = 3
Procedure: as §4

E. faecium 1674620 (VRE) = experiment: MIC against resistant strains, Tables 5a-5d; format: cell-based; conditions: Enterococcus faecium, n = 3
Procedure: as §4

[8] = test system: K. pneumoniae ATCC BAA-2473 (MDR); experiment: MIC against resistant strains, Tables 5a-5d; format: cell-based; conditions: Klebsiella pneumoniae, ATCCBAA2473, n = 3
Procedure: as §4

[9] = test system: K. pneumoniae CDC0010 (MDR); experiment: MIC against resistant strains, Tables 5a-5d; format: cell-based; conditions: Klebsiella pneumoniae, n = 3
Procedure: as §4

[10] = test system: P. aeruginosa 1674623 (MDR); experiment: MIC against resistant strains, Tables 5a-5d; format: cell-based; conditions: Pseudomonas aeruginosa, n = 3
Procedure: as §4

[11] = test system: P. aeruginosa CDC0248 (MDR); experiment: MIC against resistant strains, Tables 5a-5d; format: cell-based; conditions: Pseudomonas aeruginosa, n = 3
Procedure: as §4

[12] = test system: S. aureus ATCC 33591 (MRSA); experiment: MIC against resistant strains, Tables 5a-5d; format: cell-based; conditions: Staphylococcus aureus, n = 3
Procedure: as §4

[13] = test system: S. aureus ATCC BAA-1717 (MRSA); experiment: MIC against resistant strains, Tables 5a-5d; format: cell-based; conditions: Staphylococcus aureus, n = 3
Procedure: as §4

[14] = Solubility in aqueous media; format: physicochemical; conditions: reason why efficacy could not be detected
[15] = human, Hep G2 (ATCC HB-8065) cells, Hep G2, at the concentration given as IC50 bound, read-out: cell viability at the highest or lowest test concentration
[16] = Homo sapiens, HepG2, 24 h, read-out: IC50

MIC (E. coli K12 (ATCC 47076)) | MIC [5] | MIC [6] | MIC [7] | MIC (E. coli ATCC25922 (WT)) | MIC (E. faecium 1674620 (VRE)) | MIC [8] | MIC [9] | MIC [10] | MIC [11] | MIC [12] | MIC [13] | Structure (SMILES) | viability at 24 h (Cytotoxicity, MTT assay; [15]) | IC50 [1, 16] | other results
0.0625 µg/mL (≈ 0.121 µM) | – | – | – | – | – | – | – | – | – | – | – | CO/N=C(\C(=O)N[C@@H]1C(=O)N2C(C(=O)[O-])=C(C[n+]3cccc4c3CCC4)CS[C@H]12)c1csc(N)n1 [Cefpirome, reference compound] | 101% | > 128 µg/mL | viability at 24 h (Cytotoxicity, MTT assay; mouse, J774 (ATCC TIB-67) cells, at the concentration given as IC50 bound, read-out: cell viability at the highest or lowest test concentration): 107%; viability at 24 h (Cytotoxicity, MTT assay; mouse, NIH 3T3 (ATCC CRL-1658) cells, NIH 3T3, at the concentration given as IC50 bound, read-out: cell viability at the highest or lowest test concentration): 81%; IC50 (J774 (ATCC TIB-67) cells): > 128 µg/mL; IC50 [2]: > 128 µg/mL; MIC [3]: 0.25 µg/mL (≈ 0.486 µM); MIC [4]: 1 µg/mL (≈ 1.94 µM)
8 µg/mL | 2 µg/mL | 2 µg/mL | 2 µg/mL | 2 µg/mL | 0.25 µg/mL | 2 µg/mL | 2 µg/mL | 16 µg/mL | 32 µg/mL | 2 µg/mL | 1 µg/mL | CCCCCC[N+](C)(C)CCCOc1cc(/C=C/c2ccc(/C=C/c3cc(OCCC[N+](C)(C)CCCCCC)cc(OCCC[N+](C)(C)CCCCCC)c3)cc2)cc(OCCC[N+](C)(C)CCCCCC)c1 [Formula BB] | – | 15 µg/mL | viability at 24 h (Cytotoxicity, MTT assay; human, Hep G2 (ATCC HB-8065) cells, Hep G2, at concentrations efficacious against bacterial species (0.25-4 μg/mL), read-out: cell viability): ~90%; IC50 [1]: 15.1 µg/mL
– | – | – | – | – | – | – | – | – | – | – | – | CC(C)(C)c1cc[n+](CCCCCCOc2cc(/C=C/c3cc(OCCCCCC[n+]4ccc(C(C)(C)C)cc4)cc(OCCCCCC[n+]4ccc(C(C)(C)C)cc4)c3)cc(OCCCCCC[n+]3ccc(C(C)(C)C)cc3)c2)cc1.[I-].[I-].[I-].[I-] [Formula D] | – | 20.7 µg/mL | solubility [14]: low solubility
8 µg/mL | 64 µg/mL | 64 µg/mL | 4 µg/mL | 4 µg/mL | 1 µg/mL | 8 µg/mL | 32 µg/mL | > 64 µg/mL | > 64 µg/mL | 1 µg/mL | 1 µg/mL | CCC[N+](C)(C)CCCCOc1cc(/C=C/c2ccc(/C=C/c3cc(OCCCC[N+](C)(C)CCC)cc(OCCCC[N+](C)(C)CCC)c3)cc2)cc(OCCCC[N+](C)(C)CCC)c1 [Formula Q] | 91% | > 128 µg/mL | –
